Measured values published in ChEMBL document CHEMBL4359874, “Synthesis of novel tellurides bearing benzensulfonamide moiety as carbonic anhydrase inhibitors with antitumor activity” (Eur J Med Chem, 2019).
Active and inactive are the calls of the source. No cut-off for these calls is given here.

Columns and labels:
Carbonic anhydrase 9 = Carbonic anhydrase 9 (Homo sapiens, UniProt Q16790); assay: Inhibition of recombinant human carbonic anhydrase 9 preincubated for 15 mins by phenol red dye based stopped flow CO2 hydration assay
MDA-MB-231 [1] = assay: Cytotoxicity against human MDA-MB-231 cells assessed as reduction in cell viability at 3 to 10 uM after 48 hrs under normoxia condition by MTT assay; format: functional, cell-based
MDA-MB-231 [2] = assay: Cytotoxicity against human MDA-MB-231 cells assessed as reduction in cell viability at 30 uM after 48 hrs under hypoxia condition by MTT assay relative to control; format: functional
MDA-MB-231 [3] = assay: Cytotoxicity against human MDA-MB-231 cells assessed as reduction in cell viability at 3 uM after 48 hrs under normoxia condition by MTT assay relative to control; format: functional
MDA-MB-231 [4] = assay: Cytotoxicity against human MDA-MB-231 cells assessed as reduction in cell viability at 3 uM after 48 hrs under hypoxia condition by MTT assay relative to control; format: functional
MDA-MB-231 [5] = assay: Cytotoxicity against human MDA-MB-231 cells assessed as reduction in cell viability at 10 uM after 48 hrs under normoxia condition by MTT assay; format: functional, cell-based

Row | SMILES | Ki (Carbonic anhydrase 9) [nM] | other results
1 | NS(=O)(=O)c1ccc(OCC(O)C[Te]c2ccc3ccccc3c2)cc1 (centres undefined) | 6.4 | Activity (MDA-MB-231 [1]): Active; Activity (MDA-MB-231 [2]): 90%
2 | NS(=O)(=O)c1ccc(OCC(O)C[Te]c2ccccc2)cc1 (centres undefined) | 14.8 | –
3 | CC[Te]CC(O)COc1ccc(S(N)(=O)=O)cc1 (centres undefined) | 40.7 | –
4 | Cc1ccccc1[Te]CC(O)COc1ccc(S(N)(=O)=O)cc1 (centres undefined) | 9.5 | Activity (MDA-MB-231 [3]): >50%; Activity (MDA-MB-231 [4]): 32%; Activity (MDA-MB-231 [5]): Active; Activity (MDA-MB-231 [2]): >50%
5 | COc1ccc([Te]CC(O)COc2ccc(S(N)(=O)=O)cc2)cc1 (centres undefined) | 7.8 | –
6 | Cc1ccc([Te]CC(O)COc2ccc(S(N)(=O)=O)cc2)cc1 (centres undefined) | 118 | –
7 | CCCC[Te]CC(O)COc1ccc(S(N)(=O)=O)cc1 (centres undefined) | 333 | –
8 | NS(=O)(=O)c1ccc(OCC(O)C[Te]CC(O)COc2ccc(S(N)(=O)=O)cc2)cc1 (centres undefined) | 809 | –
